Laboratory results published in patent publication US20080108611A1, “SUBSTITUTED THIENOPYRIMIDINE KINASE INHIBITORS” (priority 2006, published 2008).

Experiments:
VEGF-R2 = target: T1, VEGF-R2 (Rattus norvegicus, UniProt O08775); experiment: VEGF-R2 Screening Assay; assay type: biochemical; conditions: rat VEGF-R2 kinase domain, 10 μM ATP
T1 construct: polyhistidine (N)
Experimental: (§1) A kinase reaction mixture was prepared containing 50 mM Tris-HCl at pH 8, 10 mM MgCl2, 0.1 mM Na3PO4, 1 mM DTT, 10 μM ATP, 0.025 μM biotinylated histone-H1 peptide substrate and 0.2 μCuries per well ^33P-γ-ATP (2000-3000 Ci/mmol). 70 μL of the kinase reaction mixture was dispensed into the well of a Streptavidin FlashPlate.
(§2) Test compound stock in 100% DMSO (1 μL) was added to the wells resulting in a final concentration of 1% DMSO in the reaction with a 100 μL final reaction volume. Each enzyme was diluted in 50 mM Tris-HCl pH=8.0, 0.1% BSA and 30 μL was added to each well to initiate the reaction. The reaction was incubated for one hour at 30° C. At the end of the 1 hr incubation, the reaction was terminated by aspirating the mixture from the plate and washing the wells twice with PBS containing 100 mM EDTA. The biotinylated peptide substrate became immobilized on the Flashplate™ and the incorporation of ^33P-γ-ATP was measured by reading the plate on a scintillation counter. Inhibition of the enzymatic activity was measured by observing a reduced amount of ^33P-γ-ATP incorporated into the immobilized peptide.
The VEGF-R2 enzyme is a fusion protein containing a polyhistidine tag at the N terminus followed by amino acids 786 to 1343 of the rat VEGF-R2 kinase domain (Accession number U93306). The assay used 150 ng of the N-terminal biotinylated peptide biotin-KHKKLAEGSAYEEV-amide (VEGF-R2) per well.
(§3) The IC50 was derived according to the procedure described in Example 1.

Aurora-A = target: T2, Aurora-A (Mus musculus, UniProt P97477); experiment: Aurora-A Screening Assay; assay type: biochemical; conditions: murine Aurora-A full length, 10 μM ATP
T2 construct: followed by the full length protein encoding the murine Aurora-A; polyhistidine (N); made in house; host or cells: Sf9 insect cells
T2 sequence (P97477 1-395): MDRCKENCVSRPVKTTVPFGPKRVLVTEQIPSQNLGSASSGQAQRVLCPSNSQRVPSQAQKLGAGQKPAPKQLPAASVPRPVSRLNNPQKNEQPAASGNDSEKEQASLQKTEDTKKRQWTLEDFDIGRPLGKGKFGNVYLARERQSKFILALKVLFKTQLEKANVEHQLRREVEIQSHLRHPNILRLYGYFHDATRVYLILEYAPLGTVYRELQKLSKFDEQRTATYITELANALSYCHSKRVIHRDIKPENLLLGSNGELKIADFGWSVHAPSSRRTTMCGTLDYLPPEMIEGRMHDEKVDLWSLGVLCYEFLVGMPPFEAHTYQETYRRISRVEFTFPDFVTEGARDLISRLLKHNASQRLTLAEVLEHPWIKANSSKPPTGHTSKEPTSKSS
Experimental: as §1, §2
Aurora-A is a fusion protein containing a polyhistidine tag at the N terminus followed by the full length protein encoding the murine Aurora-A (Accession number GB BC014711) expressed and purified from sf9 insect cells. The assay used 400 ng of the N-terminal biotinylated peptide biotin-GRTGRRNSI-amide (Aurora-A) per well.
as §3

HER-2 = target: T3, HER-2 (Homo sapiens, UniProt P04626); experiment: HER-2 Kinase Assay; assay type: biochemical; conditions: GST-HER2, 1 μM ATP
T3 construct: the nucleotides encoding amino acids 679 to 1255 of HER-2; HIS6-Thrombin (His6 tag and thrombin site) (N); purchased Proqinase (Freiburg, Germany)
Experimental: HER-2 kinase was purified at Proqinase (Freiburg, Germany) from a construct that consisted of a fusion of GST (Glutathione-S-Transferase), HIS6-Thrombin and the nucleotides encoding amino acids 679 to 1255 of HER-2.
A mixture of a 10× kinase reaction buffer (600 mM Hepes at pH 7.5, 30 mM Magnesium Chloride, 0.03 mM Sodium Vanadate and 500 μg/mL PEG 20,000), DTT (1.2 mM final from a 10 mM stock), ATP (1 μM from a 10 mM stock), biotinylated polyGluTyr (1.5 ng/μL final from stock of 1 μg/μL prepared by Upstate Biotechnologies, Lake Placid, N.Y.), Manganese Chloride (3 mM final from a 1 M stock), γ-^33P-ATP (10 μCi/μL stock) and water (70 μL/well) was added to each well of a Streptavidin Flashplate (Cat. # SMP103, NEN, Boston, Mass.).
Test compound stock (1 μL) was added to the appropriate wells. Diluted GSTHER2 kinase (6.7 ng/μL diluted into 50 mM Tris-HCl at pH 8.0 and 0.1% bovine serum albumin) (30 μL) was added (total volume of 200 ng/well) to initiate the reactions.
The reaction plates were incubated at 30° C. for 1 hr. The reaction was terminated by aspirating the reaction mixture from the plate wells and washing the wells three times with a 1×PBS stop buffer (300 μL) and 100 mM EDTA. After the final wash, the same stop buffer (200 μL) was again added to the wells. The plates were then sealed and read on the TopCount scintillation counter. The IC50 was derived according to the procedure described in Example 1.

A375 malignant melanoma = experiment: Cell Proliferation Inhibition Assay (14C-thymidine incorporation), A375; assay type: cell-based; conditions: Homo sapiens, A-375; A375 cells
Experimental: The ability of a test compound to inhibit unregulated cell proliferation was determined by measuring incorporation of ^14C-labelled thymidine into newly synthesized DNA within cell lines derived from carcinomas originating from several tissues. Accordingly, the anti-proliferative effect of a compound on cells with a variety of phenotypes may be determined.
Carcinoma cell lines include those such as HeLa cervical adenocarcinoma (American Type Culture Collection (ATCC), Virginia, Cat. #CCL-2), A375 malignant melanoma (ATCC CRL-1619), SK-OV-3 ovarian adenocarcinoma (ATCC HTB-77), HCT-116 colon carcinoma (CCL-247), PC-3 prostate adenocarcinoma (ATCC CRL-1435), and MDA-MB-231 (Xenogen Corp.)
The carcinoma cells were trypsinized and counted. The cells (3000-8000 count) were added to each well of a 96-well CytoStar tissue culture treated scintillating microplate (Amersham #RPNQ0160) in complete medium (100 μL) and the plate was then incubated in complete medium for 24 hrs at 37° C. in an […] atmosphere containing 5% CO2. Test compound (1 μL) in 100% DMSO was added to the plate test-wells with DMSO only added to control-wells. The plate was incubated in complete medium for a second 24 hr period at 37° C. in an atmosphere containing 5% CO2.
An aliquot of a solution of methyl ^14C-thymidine (56 mC/mmol) (NEN #NEC568 or Amersham #CFA532) and complete medium (20 uL to provide 0.2 μCi/well) was then added to each well and the plate was incubated for a third 24 hr period at 37° C. in an atmosphere containing 5% CO2. The plate contents were then discarded, the plate was washed twice with PBS (200 μL) and then PBS (200 μL) was added to each well. The plate was sealed and the degree of methyl ^14C-thymidine incorporation was quantified on a Packard Top Count.

T3 sequence (P04626 679-1255): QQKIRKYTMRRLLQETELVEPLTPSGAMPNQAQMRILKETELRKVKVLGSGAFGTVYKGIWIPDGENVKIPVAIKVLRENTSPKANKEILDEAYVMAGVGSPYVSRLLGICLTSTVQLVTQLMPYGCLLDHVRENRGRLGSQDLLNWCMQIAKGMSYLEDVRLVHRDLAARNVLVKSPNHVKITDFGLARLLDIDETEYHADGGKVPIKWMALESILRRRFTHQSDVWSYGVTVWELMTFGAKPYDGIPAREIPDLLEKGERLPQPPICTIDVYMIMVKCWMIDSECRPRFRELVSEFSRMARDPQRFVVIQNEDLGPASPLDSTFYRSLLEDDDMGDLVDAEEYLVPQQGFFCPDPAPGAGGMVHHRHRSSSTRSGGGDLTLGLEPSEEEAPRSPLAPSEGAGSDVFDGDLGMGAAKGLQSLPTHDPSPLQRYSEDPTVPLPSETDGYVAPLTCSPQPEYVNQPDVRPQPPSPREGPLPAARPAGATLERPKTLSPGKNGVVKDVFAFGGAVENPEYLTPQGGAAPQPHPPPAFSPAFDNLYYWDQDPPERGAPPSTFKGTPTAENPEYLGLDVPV
T1 sequence (O08775 786-1343): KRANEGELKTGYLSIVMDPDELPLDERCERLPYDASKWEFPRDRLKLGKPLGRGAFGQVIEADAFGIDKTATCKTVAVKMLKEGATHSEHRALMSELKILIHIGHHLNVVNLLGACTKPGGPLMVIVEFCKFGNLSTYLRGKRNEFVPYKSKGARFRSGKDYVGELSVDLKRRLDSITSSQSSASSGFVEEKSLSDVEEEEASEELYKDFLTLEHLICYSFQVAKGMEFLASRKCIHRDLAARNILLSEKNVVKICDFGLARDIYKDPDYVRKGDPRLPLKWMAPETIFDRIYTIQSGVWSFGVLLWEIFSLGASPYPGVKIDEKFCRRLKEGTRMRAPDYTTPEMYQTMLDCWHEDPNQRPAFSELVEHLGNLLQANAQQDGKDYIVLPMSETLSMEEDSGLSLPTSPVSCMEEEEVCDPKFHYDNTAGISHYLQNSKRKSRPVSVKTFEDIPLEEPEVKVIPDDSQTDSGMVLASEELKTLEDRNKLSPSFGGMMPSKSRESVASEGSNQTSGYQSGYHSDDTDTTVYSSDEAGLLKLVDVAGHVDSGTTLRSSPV

Structure (SMILES)	IC50 (VEGF-R2)	IC50 (Aurora-A)	IC50 (HER-2)	IC50 (A375 malignant melanoma)
Cc1cc2c(F)c(Oc3ncnc4sc(C(=O)Nc5ccc(CN6CCOCC6)cc5)c(C)c34)ccc2[nH]1 [Cpd 20, 4-(4-fluoro-2-methyl-1H-indol-5-yloxy)-5-methyl-thieno[2,3-d]pyrimidine-6-carboxylic acid (4-morpholin-4-ylmethyl-phenyl)-amide]	0.761 µM	> 100 µM	> 100 µM	> 10 µM
Cc1c(C(=O)NCCN2CCOCC2)sc2ncnc(Nc3ccc(Oc4ccccc4)cc3)c12 [Cpd 24]	~100 µM	> 100 µM	> 10 µM	> 10 µM
Cc1cc2c(F)c(Oc3ncnc4sc(C(=O)NCCN5CCOCC5)c(C)c34)ccc2[nH]1 [Cpd 19, 4-(4-fluoro-2-methyl-1H-indol-5-yloxy)-5-methyl-thieno[2,3-d]pyrimidine-6-carboxylic acid (2-morpholin-4-yl-ethyl)-amide]	0.248 µM	> 100 µM	> 100 µM	> 10 µM
Cc1cc2c(F)c(Oc3ncnc4sc(C(=O)NCCN5CCCCC5)c(C)c34)ccc2[nH]1 [Cpd 21, 4-(4-fluoro-2-methyl-1H-indol-5-yloxy)-5-methyl-thieno[2,3-d]pyrimidine-6-carboxylic acid (2-piperidin-1-yl-ethyl)-amide]	0.393 µM	> 100 µM	> 100 µM	1.5 µM
Cc1cc2c(F)c(Oc3ncnc4sc(C(=O)NCCN5CCCC5)c(C)c34)ccc2[nH]1 [Cpd 22, 4-(4-fluoro-2-methyl-1H-indol-5-yloxy)-5-methyl-thieno[2,3-d]pyrimidine-6-carboxylic acid (2-pyrrolidin-1-yl-ethyl)-amide]	0.619 µM	> 100 µM	> 100 µM	2.2 µM
COCCNC(=O)c1sc2ncnc(Oc3ccc4[nH]c(C)cc4c3F)c2c1C [Cpd 27, 4-(4-fluoro-2-methyl-1H-indol-5-yloxy)-5-methyl-thieno[2,3-d]pyrimidine-6-carboxylic acid (2-methoxy-ethyl)-amide]	0.378 µM	> 10 µM	> 10 µM	> 10 µM
Cc1c(C(=O)Nc2ccc(CN3CCOCC3)cc2)sc2ncnc(Nc3ccc(Oc4ccccc4)cc3)c12 [Cpd 23, 5-methyl-4-(4-phenoxy-phenylamino)-thieno[2,3-d]pyrimidine-6-carboxylic acid (4-morpholin-4-ylmethyl-phenyl)-amide]	> 100 µM	> 100 µM	> 100 µM	2.9 µM
